Patent US8772488B2 (Shanghai Institute of Pharmaceutical Industry, priority 2009, dated 2014)

Experiments:
[1] = Influence factor test (stability under heat, light, high humidity; HPLC purity); format: physicochemical
Experimental: Experimental method: refer to Pharmacopoeia of the People's Republic of China. 2005 ed. Part 2. Appendix XIX C
HPLC conditions: instrument: Agilent 1100
Chromatographic column: Phenomenex Hyperclone 5μ BDS C18
Mobile phase: acetonitrile: KH2PO4 (10 mM)=70:30
Column temperature: 40° C.

[2] = Solubility of acetic acid solvate (0.1N hydrogen chloride aqueous solution); format: physicochemical; conditions: for Solubility (0.1N hydrogen chloride aqueous solution), descriptive term: Chinese Pharmacopoeia 2005 General Notices
Source text: Sample Sources: the Same as Example 10
Experimental method: refer to Pharmacopoeia of the People's Republic of China. 2005 ed. Part 2. General Notices.

[3] = test system: platelet aggregation; conditions: cited from earlier work
[4] = cited from earlier work

Purity (HPLC area normalization) tR 6.2 ([1]; 0 day)	Purity (HPLC area normalization) tR 6.2 ([1]; 60° C. for 5 days)	Purity (HPLC area normalization) tR 6.2 ([1]; 60° C. for 10 days)	Purity (HPLC area normalization) tR 6.2 ([1]; RH 92.5% 5 days)	Purity (HPLC area normalization) tR 6.2 ([1]; RH 92.5% 10 days)	Purity (HPLC area normalization) tR 6.2 ([1]; light for 5 days)	Purity (HPLC area normalization) tR 6.2 ([1]; light for 10 days)	Solubility (0.1N hydrogen chloride aqueous solution), descriptive term [2]	Compound	Inhibition of platelet aggregation [3]	Water solubility compared to hydrochloride [4]	Stability of crystal A compared with crystal B ([1]; stability test)	Stability compared with X1 and X2 ([1]; under all the conditions of light, 60° C., and RH 92.5%)	Solubility compared with prasugrel hydrobromate and hydrochlorate [2]
99.08	98.89	98.29	98.39	98.20	98.49	98.20	slightly soluble	CC(=O)Oc1cc2c(s1)CCN(C(C(=O)C1CC1)c1ccccc1F)C2 (stereo not drawn) [Example X1]	good activity	–	–	–	–
99.83	99.39	99.01	96.62	96.12	99.40	98.83	degraded	Br.CC(=O)Oc1cc2c(s1)CCN(C(C(=O)C1CC1)c1ccccc1F)C2 (stereo not drawn) [Example X2]	–	improved	–	–	–
–	–	–	–	–	–	–	–	maleate	good activity	–	–	–	–

Compound	Purity (HPLC area normalization) tR 6.2 ([1]; 0 day)	Purity (HPLC area normalization) tR 6.2 ([1]; 60° C. for 5 days)	Purity (HPLC area normalization) tR 6.2 ([1]; 60° C. for 10 days)	Purity (HPLC area normalization) tR 6.2 ([1]; RH 92.5% 5 days)	Purity (HPLC area normalization) tR 6.2 ([1]; RH 92.5% 10 days)	Purity (HPLC area normalization) tR 6.2 ([1]; light for 5 days)	Purity (HPLC area normalization) tR 6.2 ([1]; light for 10 days)	Solubility (0.1N hydrogen chloride aqueous solution), descriptive term [2]	Inhibition of platelet aggregation [3]	Water solubility compared to hydrochloride [4]	Stability of crystal A compared with crystal B ([1]; stability test)	Stability compared with X1 and X2 ([1]; under all the conditions of light, 60° C., and RH 92.5%)	Solubility compared with prasugrel hydrobromate and hydrochlorate [2]
CC(=O)Oc1cc2c(s1)CCN(C(C(=O)C1CC1)c1ccccc1F)C2 (stereo not drawn) [Example X3, 2-acetoxy-5-(α-cyclopropylcarbonyl-2fluorobenzyl)-4,5,6,7-tetrahydrothieno[3,2-c]pyridine hydrobromate]	99.84	99.72	99.46	99.65	99.50	99.56	99.57	easily soluble	–	–	better than crystal B	more stable	better solubility
